# Laboratory results taken from US20240158370A1, “CK1 alpha AND DUAL CK1 alpha / GSPT1 DEGRADING COMPOUNDS” (Innovo Therapeutics, Inc., priority 2022, published 2024).
# Key:
# CK1α = biological target: T1, CK1α (Homo sapiens, UniProt P48729+Q96SW2); test: HiBiT degradation assay, CK1α, Procedure A; assay type: cell-based; details: six hours incubation
# T1 construct: CSNK1A1-HiBit KI HEK293(LgBit) Cells; host or cells: HEK293(LgBit) knock-in cells
# Method in brief: (§1)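 Cells in DMEM + 10% FBS were treated with compound in a ten-point dose response from 10 μM to 0.005 μM (0.1% DMSO) for six hours at 37° C. Lysis with Nano-Glo HiBiT detection reagent followed, with luminescence read. DC50 and Ymin came from a 4-parameter fit.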
# GSPT1 = GSPT1 (Homo sapiens, UniProt P15170+Q96SW2); test: HiBiT degradation assay, GSPT1, Procedure A; assay type: cell-based; design: HiBit-GSPT1 KI HEK293(LgBit) Cells; host or cells: HEK293(LgBit) knock-in cells; details: six hours incubation
# Chain of GSPT1 (P15170 whole entry): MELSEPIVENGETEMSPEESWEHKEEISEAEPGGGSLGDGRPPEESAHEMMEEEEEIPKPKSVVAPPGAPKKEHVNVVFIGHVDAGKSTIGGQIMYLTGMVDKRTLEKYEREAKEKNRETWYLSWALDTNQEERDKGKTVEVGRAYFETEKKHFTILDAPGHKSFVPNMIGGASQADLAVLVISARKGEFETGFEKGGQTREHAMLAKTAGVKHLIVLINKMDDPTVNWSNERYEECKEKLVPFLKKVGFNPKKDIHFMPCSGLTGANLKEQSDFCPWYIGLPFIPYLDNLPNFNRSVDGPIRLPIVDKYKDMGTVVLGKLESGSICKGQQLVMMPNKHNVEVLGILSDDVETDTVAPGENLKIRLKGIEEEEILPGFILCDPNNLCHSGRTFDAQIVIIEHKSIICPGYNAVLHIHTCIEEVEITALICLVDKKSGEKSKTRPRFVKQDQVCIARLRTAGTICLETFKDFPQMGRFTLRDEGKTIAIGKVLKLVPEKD
# Chain of GSPT1 (Q96SW2 whole entry): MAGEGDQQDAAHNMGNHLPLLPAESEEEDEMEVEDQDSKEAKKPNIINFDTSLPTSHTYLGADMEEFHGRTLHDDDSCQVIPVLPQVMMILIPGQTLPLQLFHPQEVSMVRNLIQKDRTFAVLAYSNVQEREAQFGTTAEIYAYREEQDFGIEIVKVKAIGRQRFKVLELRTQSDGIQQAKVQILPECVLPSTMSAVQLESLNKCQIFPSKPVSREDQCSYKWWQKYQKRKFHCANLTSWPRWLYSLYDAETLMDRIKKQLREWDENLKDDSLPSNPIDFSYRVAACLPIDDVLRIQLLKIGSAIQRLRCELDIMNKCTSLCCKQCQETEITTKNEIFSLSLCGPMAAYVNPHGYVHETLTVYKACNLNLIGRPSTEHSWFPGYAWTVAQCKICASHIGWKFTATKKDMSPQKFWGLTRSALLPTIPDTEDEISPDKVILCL
# Chain of GSPT1 (Q16531 whole entry partner): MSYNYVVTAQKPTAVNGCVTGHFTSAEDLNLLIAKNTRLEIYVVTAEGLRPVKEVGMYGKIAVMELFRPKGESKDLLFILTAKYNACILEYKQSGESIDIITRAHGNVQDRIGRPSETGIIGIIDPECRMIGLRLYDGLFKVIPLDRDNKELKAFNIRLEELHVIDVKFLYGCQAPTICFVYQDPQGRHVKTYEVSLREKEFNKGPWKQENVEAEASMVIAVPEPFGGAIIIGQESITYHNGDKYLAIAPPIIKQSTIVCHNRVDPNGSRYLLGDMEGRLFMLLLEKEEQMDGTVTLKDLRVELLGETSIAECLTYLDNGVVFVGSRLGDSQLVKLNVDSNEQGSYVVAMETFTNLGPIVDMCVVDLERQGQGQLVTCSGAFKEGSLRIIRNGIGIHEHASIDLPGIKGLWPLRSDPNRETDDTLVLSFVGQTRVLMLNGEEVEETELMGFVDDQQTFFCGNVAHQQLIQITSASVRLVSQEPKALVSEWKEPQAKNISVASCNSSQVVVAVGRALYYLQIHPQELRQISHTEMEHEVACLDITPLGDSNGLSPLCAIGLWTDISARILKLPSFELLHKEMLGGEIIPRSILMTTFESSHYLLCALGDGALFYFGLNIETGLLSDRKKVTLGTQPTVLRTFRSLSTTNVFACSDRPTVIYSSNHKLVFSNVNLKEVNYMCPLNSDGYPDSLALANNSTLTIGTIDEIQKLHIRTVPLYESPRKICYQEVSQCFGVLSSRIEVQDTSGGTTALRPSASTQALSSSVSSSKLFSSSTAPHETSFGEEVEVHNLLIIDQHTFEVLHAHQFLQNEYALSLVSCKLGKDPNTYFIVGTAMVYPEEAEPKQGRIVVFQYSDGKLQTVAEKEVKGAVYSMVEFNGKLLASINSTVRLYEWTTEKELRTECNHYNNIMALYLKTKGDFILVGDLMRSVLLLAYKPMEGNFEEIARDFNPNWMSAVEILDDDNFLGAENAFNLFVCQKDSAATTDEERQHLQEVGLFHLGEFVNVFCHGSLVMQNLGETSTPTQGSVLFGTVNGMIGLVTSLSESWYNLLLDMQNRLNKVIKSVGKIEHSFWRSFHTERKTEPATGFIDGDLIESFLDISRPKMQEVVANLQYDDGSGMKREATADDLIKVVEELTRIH
# Method in brief: as §1
# T1 sequence (P48729 whole entry): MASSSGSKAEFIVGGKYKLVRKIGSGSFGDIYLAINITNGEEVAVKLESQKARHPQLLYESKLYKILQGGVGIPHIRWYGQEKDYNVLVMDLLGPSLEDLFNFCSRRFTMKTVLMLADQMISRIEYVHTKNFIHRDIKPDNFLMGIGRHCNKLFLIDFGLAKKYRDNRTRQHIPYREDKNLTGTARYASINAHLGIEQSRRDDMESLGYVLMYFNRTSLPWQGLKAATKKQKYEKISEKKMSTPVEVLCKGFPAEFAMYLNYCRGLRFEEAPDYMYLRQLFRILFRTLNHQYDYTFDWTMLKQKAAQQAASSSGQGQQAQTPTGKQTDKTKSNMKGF
# T1 sequence (Q96SW2 whole entry): as the sequence (Q96SW2 whole entry) above
# T1 sequence (Q16531 whole entry partner): as the sequence (Q16531 whole entry partner) above
Structure (SMILES),CK1α Ymin (CK1α),DC50 (CK1α) [µM],DC50 (GSPT1) [µM],GSPT1 Ymin (GSPT1)
Cc1ccc(Cl)c(-c2c(-c3ccc4c(c3)CN(C3CCC(=O)NC3=O)C4=O)cnn2C)c1 (stereo not drawn) [Example 86],E (E = >25-75% remaining),< 0.025,≥ 0.025,F (F = >75-100% remaining)
Cc1ccc(C)c(-c2c(-c3ccc4c(c3)CN(C3CCC(=O)NC3=O)C4=O)cnn2C)c1 (stereo not drawn) [Example 87],E (E = >25-75% remaining),< 0.025,≥ 0.025,F (F = >75-100% remaining)
Cn1ncc(-c2ccc3c(c2)CN(C2CCC(=O)NC2=O)C3=O)c1-c1ccc(F)cc1Cl (stereo not drawn) [Example 88],E (E = >25-75% remaining),< 0.025,≥ 0.025,F (F = >75-100% remaining)
Cc1ccc(F)c(-c2c(-c3ccc4c(c3)CN(C3CCC(=O)NC3=O)C4=O)cnn2C)c1 (stereo not drawn) [Example 89],E (E = >25-75% remaining),< 0.025,≥ 0.025,F (F = >75-100% remaining)
Cn1ncc(-c2ccc3c(c2)CN(C2CCC(=O)NC2=O)C3=O)c1-c1ccc(Cl)c(F)c1 (stereo not drawn) [Example 90],E (E = >25-75% remaining),< 0.025,≥ 0.025,F (F = >75-100% remaining)
Cc1cc(-c2c(-c3ccc4c(c3)CN(C3CCC(=O)NC3=O)C4=O)cnn2C)ccc1F (stereo not drawn) [Example 91],E (E = >25-75% remaining),< 0.025,≥ 0.025,E (E = >25-75% remaining)
CC(C)Cc1ccc(-c2c(-c3ccc4c(c3)CN(C3CCC(=O)NC3=O)C4=O)cnn2C)cc1 (stereo not drawn) [Example 92],E (E = >25-75% remaining),≥ 0.025,≥ 0.025,F (F = >75-100% remaining)
Cn1ncc(-c2ccc3c(c2)CN(C2CCC(=O)NC2=O)C3=O)c1-c1cc(Cl)ccc1F (stereo not drawn) [Example 93],E (E = >25-75% remaining),≥ 0.025,≥ 0.025,F (F = >75-100% remaining)
Cc1ccc(-c2c(-c3ccc4c(c3)CN(C3CCC(=O)NC3=O)C4=O)cnn2C)c(F)c1 (stereo not drawn) [Example 94],D (D = >10- 25% remaining),< 0.025,≥ 0.025,F (F = >75-100% remaining)
Cn1ncc(-c2ccc3c(c2)CN(C2CCC(=O)NC2=O)C3=O)c1-c1ccsc1 (stereo not drawn) [Example 95],D (D = >10- 25% remaining),< 0.025,≥ 0.025,F (F = >75-100% remaining)
COc1ccccc1-c1c(-c2ccc3c(c2)CN(C2CCC(=O)NC2=O)C3=O)cnn1C (stereo not drawn) [Example 96],E (E = >25-75% remaining),≥ 0.025,≥ 0.025,F (F = >75-100% remaining)
Cn1ncc(-c2ccc3c(c2)CN(C2CCC(=O)NC2=O)C3=O)c1-c1ccc2c(c1)CCO2 (stereo not drawn) [Example 97],D (D = >10- 25% remaining),< 0.025,≥ 0.025,F (F = >75-100% remaining)
Cn1ncc(-c2ccc3c(c2)CN(C2CCC(=O)NC2=O)C3=O)c1-c1ccc(C(=O)NC2CCCC2)cc1 (stereo not drawn) [Example 98],E (E = >25-75% remaining),≥ 0.025,≥ 0.025,F (F = >75-100% remaining)
Cc1cc(-c2c(-c3ccc4c(c3)CN(C3CCC(=O)NC3=O)C4=O)cnn2C)ccc1Cl (stereo not drawn) [Example 99],E (E = >25-75% remaining),< 0.025,≥ 0.025,F (F = >75-100% remaining)
Cn1ncc(-c2ccc3c(c2)CN(C2CCC(=O)NC2=O)C3=O)c1-c1ccc(NC(=O)c2ccccc2)cc1 (stereo not drawn) [Example 100],E (E = >25-75% remaining),≥ 0.025,≥ 0.025,F (F = >75-100% remaining)
Cn1ncc(-c2ccc3c(c2)CN(C2CCC(=O)NC2=O)C3=O)c1-c1ccc(-c2ccc(C#N)cc2)cc1 (stereo not drawn) [Example 101],E (E = >25-75% remaining),< 0.025,≥ 0.025,F (F = >75-100% remaining)
Cn1ncc(-c2ccc3c(c2)CN(C2CCC(=O)NC2=O)C3=O)c1-c1ccc(C(=O)NCc2ccccc2)c(Cl)c1 (stereo not drawn) [Example 102],E (E = >25-75% remaining),≥ 0.025,≥ 0.025,F (F = >75-100% remaining)
Cn1ncc(-c2ccc3c(c2)CN(C2CCC(=O)NC2=O)C3=O)c1-c1ccc(-c2cccnc2)cc1 (stereo not drawn) [Example 103],D (D = >10- 25% remaining),< 0.025,≥ 0.025,F (F = >75-100% remaining)

Structure (SMILES),CK1α Ymin (CK1α),DC50 (CK1α) [µM],DC50 (GSPT1) [µM],GSPT1 Ymin (GSPT1)
COc1ccc(-c2c(-c3ccc4c(c3)CN(C3CCC(=O)NC3=O)C4=O)cnn2C)cc1F (stereo not drawn) [Example 104],C (C = 0-10% remaining),< 0.025,≥ 0.025,F (F = >75-100% remaining)
Cn1ncc(-c2ccc3c(c2)CN(C2CCC(=O)NC2=O)C3=O)c1-c1cccc2c1OCC2 (stereo not drawn) [Example 105],E (E = >25-75% remaining),< 0.025,≥ 0.025,F (F = >75-100% remaining)
Cc1cccc(-c2c(-c3ccc4c(c3)CN(C3CCC(=O)NC3=O)C4=O)cnn2C)c1F (stereo not drawn) [Example 106],E (E = >25-75% remaining),< 0.025,≥ 0.025,F (F = >75-100% remaining)
COc1c(F)cccc1-c1c(-c2ccc3c(c2)CN(C2CCC(=O)NC2=O)C3=O)cnn1C (stereo not drawn) [Example 107],E (E = >25-75% remaining),< 0.025,≥ 0.025,F (F = >75-100% remaining)
Cn1ncc(-c2ccc3c(c2)CN(C2CCC(=O)NC2=O)C3=O)c1-c1cccc(F)c1Cl (stereo not drawn) [Example 108],E (E = >25-75% remaining),< 0.025,≥ 0.025,F (F = >75-100% remaining)
Cc1ccc(-c2c(-c3ccc4c(c3)CN(C3CCC(=O)NC3=O)C4=O)cnn2C)c(C#N)c1 (stereo not drawn) [Example 109],E (E = >25-75% remaining),< 0.025,≥ 0.025,F (F = >75-100% remaining)
Cn1ncc(-c2ccc3c(c2)CN(C2CCC(=O)NC2=O)C3=O)c1-c1ccc(C2(C#N)CC2)cc1 (stereo not drawn) [Example 110],E (E = >25-75% remaining),< 0.025,≥ 0.025,F (F = >75-100% remaining)
Cn1ncc(-c2ccc3c(c2)CN(C2CCC(=O)NC2=O)C3=O)c1-c1cccc(N2CCCCC2)c1 (stereo not drawn) [Example 111],F (F = >75-100% remaining),≥ 0.025,≥ 0.025,F (F = >75-100% remaining)
Cn1ncc(-c2ccc3c(c2)CN(C2CCC(=O)NC2=O)C3=O)c1-c1ccc(COc2ccccc2)cc1 (stereo not drawn) [Example 112],D (D = >10- 25% remaining),< 0.025,≥ 0.025,F (F = >75-100% remaining)
COc1ccc(-c2c(-c3ccc4c(c3)CN(C3CCC(=O)NC3=O)C4=O)cnn2C)cc1OCc1ccccc1 (stereo not drawn) [Example 113],D (D = >10- 25% remaining),< 0.025,≥ 0.025,F (F = >75-100% remaining)
Cn1ncc(-c2ccc3c(c2)CN(C2CCC(=O)NC2=O)C3=O)c1-c1cccc2c1CCC2 (stereo not drawn) [Example 114],E (E = >25-75% remaining),< 0.025,≥ 0.025,F (F = >75-100% remaining)
Cn1ncc(-c2ccc3c(c2)CN(C2CCC(=O)NC2=O)C3=O)c1-c1ccccc1C1CC1 (stereo not drawn) [Example 115],E (E = >25-75% remaining),< 0.025,≥ 0.025,F (F = >75-100% remaining)
Cn1ncc(-c2ccc3c(c2)CN(C2CCC(=O)NC2=O)C3=O)c1C1CC1 (stereo not drawn) [Example 116],E (E = >25-75% remaining),≥ 0.025,≥ 0.025,F (F = >75-100% remaining)
"Cn1c(C2CC2)nc(-c2ccc3c(c2)CN(C2CCC(=O)NC2=O)C3=O)c1-c1cncnc1 (stereo not drawn) [Example 117, 3-(5-(2-cyclopropyl-1-methyl-5-(pyrimidin-5-yl)-1H-imidazol-4-yl)-1-oxoisoindolin-2-yl)piperidine-2,6-dione]",C (C = 0-10% remaining),< 0.025,≥ 0.025,F (F = >75-100% remaining)
"O=C1CCC(N2Cc3cc(-c4c[nH]nc4-c4ccccn4)ccc3C2=O)C(=O)N1 (stereo not drawn) [Example 118, 3-(1-oxo-5-(3-(pyridin-2-yl)-1H-pyrazol-4-yl)isoindolin-2-yl)piperidine-2,6-dione]",E (E = >25-75% remaining),≥ 0.025,≥ 0.025,F (F = >75-100% remaining)
Cn1ncc(-c2ccc3c(c2)CN(C2CCC(=O)NC2=O)C3=O)c1-c1ccc(Cl)c(C#N)c1 (stereo not drawn) [Example 119],E (E = >25-75% remaining),≥ 0.025,≥ 0.025,F (F = >75-100% remaining)
Cn1ncc(-c2ccc3c(c2)CN(C2CCC(=O)NC2=O)C3=O)c1-c1cc(F)ccc1Cl (stereo not drawn) [Example 120],E (E = >25-75% remaining),≥ 0.025,≥ 0.025,F (F = >75-100% remaining)
CN(C)C(=O)c1ccc(-c2c(-c3ccc4c(c3)CN(C3CCC(=O)NC3=O)C4=O)cnn2C)cc1 (stereo not drawn) [Example 121],C (C = 0-10% remaining),≥ 0.025,≥ 0.025,F (F = >75-100% remaining)
